Entries after “also recorded” stand apart in the source; their conditions may differ. Read-outs that look alike come from different tables or passages of the source.
Assays:
[1] = 9-month (39 weeks) GLP chronic oral toxicity study in dogs; settings: both sexes, beagle, in vivo, dog, 9 months (39 weeks)
Description: The GLP-compliant studies each included 4 weeks of oral dosing followed by a 4-week recovery period in both rats and dogs followed by GLP-compliant chronic toxicity studies in rats (6 months of oral dosing) and dogs (9 months of oral dosing).
A subsequent GLP-compliant 9-month chronic dog study was conducted in beagle dogs at dosages of 0, 0.1, 0.5, and 1.5 mg/kg/day by daily oral capsule administration. No Compound 1-related changes in food consumption or body weights were observed during the dosing period.

in vivo = settings: both, rat, po
Description: (§1) The 4-week rat study was conducted at dose levels of 0, 10, 50, 100, and 200 mg/kg/day by daily oral administration (gavage). […] The cause of death was not determined for animals that died.

OATP1B3 = OATP1B3 (Homo sapiens, UniProt Q9NPD5); assay: Transporter inhibition, OATP1B3; settings: up to 30 μM
[2] = Metabolic stability in hepatocytes, human; type: in vitro ADME; settings: read-out: intrinsic clearance in hepatocytes (converted)
IL-7-induced pSTAT5 = assay: Ex vivo stimulation assay IL-7 pSTAT5, orally dosed healthy human subjects; settings: oral
CYP2C19 = CYP2C19 (Homo sapiens, UniProt P33261); assay: CYP inhibition in human liver microsomes, CYP2C19
[3] = molecular target: CYP3A4 (midazolam/testosterone) (Homo sapiens, UniProt P08684); assay: CYP inhibition in human liver microsomes, CYP3A4
Photostability = type: physicochemical; settings: preclinical studies
Text: In repeated-dose oral toxicity studies in rats and dogs of 6 and 9 months duration, respectively, no evidence of skin or ocular toxicity has been observed.

CYP2B6 = CYP2B6 (Homo sapiens, UniProt P20813); assay: CYP inhibition in human liver microsomes, CYP2B6
[4] = rat, in vivo
Description: as §1

[5] = tested on: EPO dependent reticulocyte deployment; assay: Reticulocyte deployment assay (i.v. EPO) in rats; type: in vivo; settings: over the exposure range efficacious in rat AIA
Text: Reticulocytes were deployed with an i.v. EPO injection, which produced a modest but very precise reticulocytosis.
In contrast, PBS control has negligible (if any) effect. This is consistent with the fact that EPO signals through Jak2 to stimulate reticulocyte development.

[6] = Human PK in healthy Japanese and Chinese subjects, Study M13-543; type: in vivo; settings: for AUC12/dose / Cmax/dose / Ctrough/Dose: Day 14, mean (% CV); for half-life / AUC / concentration at 14 day / AUC(0-t): human, plasma, oral; for AUC: read-out: AUC12; for concentration at 14 day: read-out: Ctrough; for AUC(0-t): mean (% CV)
Text: Two additional subjects were assigned to each dose level as placebo control.

[7] = Pivotal 4-week GLP oral toxicity study in rats; settings: rat, 4 weeks; leading number = dose mg/kg/day
Description: as §1

[8] = Safety pharmacology in dogs (mean arterial pressure, heart rate); settings: dog, in vivo; read-out: Cmax at which effects on mean arterial pressure and heart rate begin
Description: Compound 1 was tested in a battery of safety pharmacology assays.

[9] = tested on: Balb/c 3T3 mouse fibroblasts; assay: Neutral red uptake phototoxicity assay; type: cell-based
CYP2D6 = CYP2D6 (Homo sapiens, UniProt P10635); assay: Metabolism by recombinant CYP2D6; type: in vitro ADME; set-up: from tissue; host or cells: human liver microsomes
Text: In vitro biotransformation of Compound 1 primarily occurred at imidazolpyrrolopyrazinyl ethyl pyrrolidine moiety.

all other CYPs = assay: Metabolism by all other recombinant CYPs; type: in vitro ADME
P-gp = P-gp (Homo sapiens, UniProt P08183); assay: P-gp inhibition; type: in vitro ADME
[10] = dog, in vivo
Rock2 = Rock2 (Homo sapiens, UniProt O75116); assay: Kinase panel, Rock2; type: biochemical
OCT1 = OCT1 (Homo sapiens, UniProt O15245); assay: Transporter inhibition, OCT1; settings: up to 30 μM
EPO (Erythroid CFU) = assay: Erythroid bone marrow colony forming assay (EPO); type: cell-based; settings: read-out: Colony Formation EPO (Erythroid CFU)
[11] = Japanese, 6 & 24 mg single doses
[12] = 18 mg, Chinese, 18 mg BID, Day 14
[13] = 18 mg, Japanese, 18 mg BID, Day 14

CYP2C19, sequence (P33261 whole entry): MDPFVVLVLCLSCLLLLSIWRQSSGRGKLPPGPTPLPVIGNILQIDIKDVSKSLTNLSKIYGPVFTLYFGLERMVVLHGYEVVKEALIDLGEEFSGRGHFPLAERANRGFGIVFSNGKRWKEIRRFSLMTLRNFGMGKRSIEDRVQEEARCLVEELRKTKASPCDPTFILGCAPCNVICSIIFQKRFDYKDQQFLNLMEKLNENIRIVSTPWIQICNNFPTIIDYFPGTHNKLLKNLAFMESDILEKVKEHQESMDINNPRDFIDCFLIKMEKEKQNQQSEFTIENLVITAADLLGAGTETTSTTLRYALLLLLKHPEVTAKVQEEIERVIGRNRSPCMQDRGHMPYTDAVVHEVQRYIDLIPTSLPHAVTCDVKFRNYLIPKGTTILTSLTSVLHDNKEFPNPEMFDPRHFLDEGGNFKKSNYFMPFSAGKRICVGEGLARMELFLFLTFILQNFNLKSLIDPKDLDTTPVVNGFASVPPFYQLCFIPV
CYP3A4 (midazolam/testosterone), sequence (P08684 whole entry): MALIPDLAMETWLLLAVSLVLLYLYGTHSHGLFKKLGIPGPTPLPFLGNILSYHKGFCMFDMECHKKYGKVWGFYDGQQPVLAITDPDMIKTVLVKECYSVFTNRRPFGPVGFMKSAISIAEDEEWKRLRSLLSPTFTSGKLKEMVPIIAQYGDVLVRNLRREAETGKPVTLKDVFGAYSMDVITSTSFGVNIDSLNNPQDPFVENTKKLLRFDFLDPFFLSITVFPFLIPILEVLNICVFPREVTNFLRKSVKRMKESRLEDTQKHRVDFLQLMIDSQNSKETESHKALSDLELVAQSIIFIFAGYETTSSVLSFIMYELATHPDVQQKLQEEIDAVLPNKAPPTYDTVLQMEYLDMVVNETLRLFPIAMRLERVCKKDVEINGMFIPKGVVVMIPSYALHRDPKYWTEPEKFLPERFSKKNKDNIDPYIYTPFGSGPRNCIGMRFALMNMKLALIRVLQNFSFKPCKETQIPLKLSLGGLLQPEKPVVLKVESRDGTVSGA
CYP2B6, sequence (P20813 whole entry): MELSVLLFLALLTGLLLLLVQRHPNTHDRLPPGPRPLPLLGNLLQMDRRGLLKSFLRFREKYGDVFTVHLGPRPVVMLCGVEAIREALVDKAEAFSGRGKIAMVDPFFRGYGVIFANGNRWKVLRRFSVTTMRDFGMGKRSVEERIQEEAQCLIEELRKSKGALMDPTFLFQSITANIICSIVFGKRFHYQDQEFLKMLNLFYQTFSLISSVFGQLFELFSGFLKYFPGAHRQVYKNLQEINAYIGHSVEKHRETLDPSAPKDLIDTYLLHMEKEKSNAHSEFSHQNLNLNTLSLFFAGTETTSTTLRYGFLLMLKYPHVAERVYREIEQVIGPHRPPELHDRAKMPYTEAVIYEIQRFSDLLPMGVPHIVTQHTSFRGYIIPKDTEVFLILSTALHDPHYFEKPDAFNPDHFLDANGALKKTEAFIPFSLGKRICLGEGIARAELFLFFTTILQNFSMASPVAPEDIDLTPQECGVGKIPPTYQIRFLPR
OCT1, sequence (O15245 whole entry): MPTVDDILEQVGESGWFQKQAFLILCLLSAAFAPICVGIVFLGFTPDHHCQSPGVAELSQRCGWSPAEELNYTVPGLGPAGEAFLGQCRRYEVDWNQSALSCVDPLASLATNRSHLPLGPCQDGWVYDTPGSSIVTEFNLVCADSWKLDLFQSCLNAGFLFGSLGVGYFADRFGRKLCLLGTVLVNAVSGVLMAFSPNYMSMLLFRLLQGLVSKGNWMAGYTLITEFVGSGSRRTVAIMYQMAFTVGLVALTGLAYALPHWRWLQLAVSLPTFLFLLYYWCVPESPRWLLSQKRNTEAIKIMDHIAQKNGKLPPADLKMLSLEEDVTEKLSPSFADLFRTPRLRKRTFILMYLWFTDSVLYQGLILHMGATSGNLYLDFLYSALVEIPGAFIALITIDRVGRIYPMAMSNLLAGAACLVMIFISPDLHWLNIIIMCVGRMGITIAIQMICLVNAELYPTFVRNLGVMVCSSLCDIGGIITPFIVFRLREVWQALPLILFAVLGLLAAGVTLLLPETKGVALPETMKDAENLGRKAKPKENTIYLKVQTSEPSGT
OATP1B3, sequence (Q9NPD5 whole entry): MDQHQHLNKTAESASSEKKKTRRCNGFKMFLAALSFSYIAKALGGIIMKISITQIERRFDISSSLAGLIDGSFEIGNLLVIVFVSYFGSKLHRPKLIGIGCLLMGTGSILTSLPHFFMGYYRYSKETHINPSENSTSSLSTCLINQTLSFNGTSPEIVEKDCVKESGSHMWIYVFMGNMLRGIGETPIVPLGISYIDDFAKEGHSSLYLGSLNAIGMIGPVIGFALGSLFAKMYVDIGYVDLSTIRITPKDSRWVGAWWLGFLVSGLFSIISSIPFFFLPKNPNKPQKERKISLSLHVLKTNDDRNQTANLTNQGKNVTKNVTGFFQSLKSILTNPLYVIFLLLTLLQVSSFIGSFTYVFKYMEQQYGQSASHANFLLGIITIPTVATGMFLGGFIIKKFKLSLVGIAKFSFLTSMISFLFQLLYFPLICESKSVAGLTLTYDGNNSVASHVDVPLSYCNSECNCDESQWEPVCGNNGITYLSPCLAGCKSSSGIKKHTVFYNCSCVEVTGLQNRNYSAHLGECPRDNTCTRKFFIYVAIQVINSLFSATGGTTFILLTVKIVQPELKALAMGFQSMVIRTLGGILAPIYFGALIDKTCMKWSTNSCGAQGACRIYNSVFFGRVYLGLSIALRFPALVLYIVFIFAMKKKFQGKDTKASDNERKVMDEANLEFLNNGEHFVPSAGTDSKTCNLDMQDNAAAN
P-gp, sequence (P08183 whole entry): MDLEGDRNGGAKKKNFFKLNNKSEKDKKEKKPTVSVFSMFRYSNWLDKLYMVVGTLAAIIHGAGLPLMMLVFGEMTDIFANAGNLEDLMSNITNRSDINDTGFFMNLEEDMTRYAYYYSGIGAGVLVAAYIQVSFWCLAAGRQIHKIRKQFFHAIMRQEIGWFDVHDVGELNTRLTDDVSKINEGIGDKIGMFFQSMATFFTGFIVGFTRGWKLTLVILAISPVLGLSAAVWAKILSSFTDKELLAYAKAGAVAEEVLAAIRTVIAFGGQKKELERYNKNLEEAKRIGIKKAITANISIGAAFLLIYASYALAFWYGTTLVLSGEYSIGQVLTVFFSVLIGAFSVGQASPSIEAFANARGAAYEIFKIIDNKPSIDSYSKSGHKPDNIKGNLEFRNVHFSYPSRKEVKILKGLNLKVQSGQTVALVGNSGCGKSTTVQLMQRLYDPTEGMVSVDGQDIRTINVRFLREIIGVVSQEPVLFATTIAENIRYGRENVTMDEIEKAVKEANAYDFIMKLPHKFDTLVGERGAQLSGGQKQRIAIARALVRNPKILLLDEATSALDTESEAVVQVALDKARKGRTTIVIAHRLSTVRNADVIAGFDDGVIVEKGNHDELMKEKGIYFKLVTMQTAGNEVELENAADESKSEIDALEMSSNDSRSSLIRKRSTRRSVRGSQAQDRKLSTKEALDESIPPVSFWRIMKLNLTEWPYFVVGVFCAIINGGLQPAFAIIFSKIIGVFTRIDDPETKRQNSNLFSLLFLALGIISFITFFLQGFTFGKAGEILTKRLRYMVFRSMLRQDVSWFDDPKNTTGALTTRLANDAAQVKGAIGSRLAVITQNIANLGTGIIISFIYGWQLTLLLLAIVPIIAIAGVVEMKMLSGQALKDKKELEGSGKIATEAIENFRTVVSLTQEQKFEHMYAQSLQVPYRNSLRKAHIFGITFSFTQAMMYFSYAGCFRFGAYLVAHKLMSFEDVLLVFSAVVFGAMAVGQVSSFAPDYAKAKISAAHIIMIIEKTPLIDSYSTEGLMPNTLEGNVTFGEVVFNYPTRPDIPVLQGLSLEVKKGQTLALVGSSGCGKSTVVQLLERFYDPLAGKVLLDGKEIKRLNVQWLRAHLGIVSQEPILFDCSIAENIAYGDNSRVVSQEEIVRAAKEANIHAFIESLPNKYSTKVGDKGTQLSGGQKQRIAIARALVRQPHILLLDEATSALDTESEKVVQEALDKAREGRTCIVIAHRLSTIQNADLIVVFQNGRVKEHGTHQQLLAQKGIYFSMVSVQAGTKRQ
CYP2D6, sequence (P10635 whole entry): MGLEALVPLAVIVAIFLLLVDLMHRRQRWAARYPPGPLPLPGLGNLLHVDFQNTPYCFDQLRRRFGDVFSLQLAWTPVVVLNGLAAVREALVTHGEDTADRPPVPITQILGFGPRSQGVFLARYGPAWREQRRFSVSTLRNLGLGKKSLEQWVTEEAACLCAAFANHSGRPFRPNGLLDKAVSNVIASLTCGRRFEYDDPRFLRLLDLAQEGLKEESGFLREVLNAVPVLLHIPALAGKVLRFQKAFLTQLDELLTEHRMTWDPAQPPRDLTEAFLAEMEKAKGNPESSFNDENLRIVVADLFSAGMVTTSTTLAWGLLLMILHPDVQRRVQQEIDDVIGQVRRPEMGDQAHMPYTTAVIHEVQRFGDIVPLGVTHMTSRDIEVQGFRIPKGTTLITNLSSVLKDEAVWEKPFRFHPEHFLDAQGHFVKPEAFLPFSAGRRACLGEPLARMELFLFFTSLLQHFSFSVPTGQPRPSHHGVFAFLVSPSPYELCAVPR

Q: Which NOAEL at 9 months [1] does the source give for `CC[C@@H]1CN(C(=O)NCC(F)(F)F)C[C@@H]1c1cnc2cnc3[nH]ccc3n12` [Compound 1, (3S,4R)-3-ethyl-4-(3H-imidazo[1,2-a]pyrrolo[2,3-e]pyrazin-8-yl)-N-(2,2,2-trifluoroethyl)pyrrolidine-1-carboxamide] here?
A: 1.5 mg/kg/day

Q: What about the NOAEL at 4 weeks (in vivo) of the same molecule?
A: 50 mg/kg/day

Q: What about the “inhibition of OATP1B3 uptake” value (OATP1B3) of the same molecule?
A: No significant inhibition

Q: And the CLint scaled at 1 μM [2]?
A: 6.1 mL/min/kg

Q: What about the “dose causing the same inhibition of IL-7-induced pSTAT5 as 5 mg tofacitinib” value (IL-7-induced pSTAT5) of the same molecule?
A: 12 mg

Q: What about the “time-dependent inhibition of CYP2C19” value (CYP2C19; human liver microsomes) of the same molecule?
A: No obvious time-dependent inhibition

Q: What about the “inhibition of CYP2C19” value (CYP2C19; up to 30 μM) of the same molecule?
A: did not inhibit; also recorded: not an inhibitor

Q: What about the “time-dependent inhibition of CYP3A4” value ([3]; human liver microsomes) of the same molecule?
A: No obvious time-dependent inhibition

Q: What about the “inhibition of CYP3A4 (midazolam/testosterone)” value ([3]; up to 30 μM) of the same molecule?
A: did not inhibit; also recorded: not an inhibitor

Q: What about the photostability (Photostability) of the same molecule?
A: photoinstability

Q: And the “time-dependent inhibition of CYP2B6” value (CYP2B6; human liver microsomes)?
A: No obvious time-dependent inhibition

Q: And the “inhibition of CYP2B6” value (CYP2B6; up to 30 μM)?
A: did not inhibit; also recorded: not an inhibitor

Q: What about the “Adverse Findings” value ([4]; both, 4 weeks) of the same molecule?
A: 100: Kidneys-cortical tubular

Q: And the dose-limiting effects [4]?
A: mortality

Q: And the “change in RBC counts compared to control means” value ([4]; 100 mg/kg/day)?
A: −13%

Q: And the “change in hematocrit compared to control means” value ([4]; 100 mg/kg/day)?
A: −14%

Q: What about the “increase in mean phosphorus (up to, vs control mean)” value ([4]; 100 mg/kg/day) of the same molecule?
A: +10%

Q: And the “effects on reticulocyte deployment” value [5]?
A: less than that of Tofacitinib

Q: And the CL/F ([6]; Chinese, 18 mg BID, Day 14)?
A: 39.0 L/h

Q: And the AUC12/dose ([6]; Chinese, 18 mg BID)?
A: 25.9 ng·h/mL/mg

Q: What about the Cmax/dose ([6]; Chinese, 18 mg BID) of the same molecule?
A: 6.57 ng/mL/mg

Q: What about the Ctrough/Dose ([6]; Chinese, 18 mg BID) of the same molecule?
A: 0.43 ng/mL/mg

Q: What about the “AUC lower than previously observed in Western subjects” value ([6]; Japanese, 3 mg single dose) of the same molecule?
A: 14%

Q: What about the “Cmax lower than previously observed in Western subjects” value ([6]; Japanese, 3 mg single dose) of the same molecule?
A: 22%

Q: What about the CL/F ([6]; Japanese, 18 mg BID, Day 14) of the same molecule?
A: 35.2 L/h

Q: And the AUC12/dose ([6]; Japanese, 18 mg BID)?
A: 29.0 ng·h/mL/mg

Q: And the Cmax/dose ([6]; Japanese, 18 mg BID)?
A: 7.08 ng/mL/mg

Q: And the Ctrough/Dose ([6]; Japanese, 18 mg BID)?
A: 0.48 ng/mL/mg

Q: And the “AUC higher than previously observed in Western subjects” value [6, 11]?
A: 16-18%

Q: And the “Cmax higher than previously observed in Western subjects” value [6, 11]?
A: 9%

Q: What about the half-life ([6]; 6 mg, Japanese, single dose 6 mg, harmonic mean (pseudo % CV), not a robust estimate, read-out: t1/2 (converted)) of the same molecule?
A: 5.5 h

Q: What about the AUC ([6]; 18 mg, Chinese, 18 mg BID, Day 1, mean (% CV)) of the same molecule?
A: 410 ng·h/mL

Q: What about the AUC [6, 12] of the same molecule?
A: 466 ng·h/mL

Q: What about the concentration at 14 day [6, 12] of the same molecule?
A: 7.7 ng/mL

Q: And the AUC ([6]; 18 mg, Japanese, 18 mg BID, Day 1, mean (% CV))?
A: 440 ng·h/mL

Q: What about the half-life ([6]; 18 mg, Japanese, 18 mg BID, Day 14, harmonic mean (pseudo % CV), read-out: t1/2 (converted)) of the same molecule?
A: 9.51 h

Q: And the AUC [6, 13]?
A: 522 ng·h/mL

Q: And the concentration at 14 day [6, 13]?
A: 8.61 ng/mL

Q: And the half-life ([6]; Japanese, Chinese, and Western healthy subjects, read-out: terminal t1/2)?
A: 7 to 9.5 h

Q: What about the AUC(0-t) ([6]; Japanese, single dose 3 mg) of the same molecule?
A: 87.9 ng·h/mL

Q: And the AUC(0-t) ([6]; Japanese, single dose 6 mg)?
A: 185 ng·h/mL

Q: And the AUC(0-t) ([6]; Japanese, single dose 24 mg)?
A: 722 ng·h/mL

Q: And the “dose-normalized AUC and Ctrough higher in Asians than Westerns” value ([6]; multiple BID dosing)?
A: approximately 20%

Q: What about the “dose-normalized Cmax higher in Asians than Westerns” value ([6]; multiple BID dosing) of the same molecule?
A: approximately 40%

Q: And the “Adverse Findings” value [7]?
A: ≧100: Mortality

Q: What about the Cmax [8] of the same molecule?
A: 420 ng/mL

Q: And the phototoxicity potential [9]?
A: negative

Q: What about the “percentage of parent remaining” value (CYP2D6) of the same molecule?
A: 73.4%

Q: What about the “percentage of parent remaining” value (all other CYPs) of the same molecule?
A: greater than 98.0%

Q: And the IC50 (P-gp)?
A: 348000 nM

Q: What about the “AUC lower in fed than fasted animals” value [10] of the same molecule?
A: approximately 40%

Q: And the “Cmax lower in fed than fasted animals” value [10]?
A: approximately 3 fold

Q: What about the Vc ([10]; iv, 1 mg/kg) of the same molecule?
A: 1.9 L/kg

Q: What about the Vβ ([10]; iv, 1 mg/kg) of the same molecule?
A: 2.9 L/kg

Q: And the F ([10]; po, 5 mg/kg)?
A: 65.8 (12.1) %

Q: And the IC50 (Rock2)?
A: 430 nM

Q: What about the “inhibition of OCT1 uptake” value (OCT1) of the same molecule?
A: No significant inhibition

Q: And the IC50 (EPO (Erythroid CFU))?
A: 400 nM
